Assay results: PubChem BioAssay (NCI)
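Briefly, cells in 96-well plates were exposed to five compound concentrations for 48 h, and endpoints were estimated by linear interpolation. TGI is the concentration that stops growth completely.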

Experiments:
Test in all cases: DTP human tumour cell line panel, 48 h
NCI-H23 lung = tested on: NCI-H23 lung
LXFL 529 NSCLC = tested on: LXFL 529 NSCLC
KM20L2 colon = tested on: KM20L2 colon
HT29 colon = tested on: HT29 colon
MOLT-4 leukemia = tested on: MOLT-4 leukemia
SK-MEL-28 melanoma = tested on: SK-MEL-28 melanoma
DMS 114 small cell lung = tested on: DMS 114 small cell lung
UACC-62 melanoma = tested on: UACC-62 melanoma
SK-MEL-2 melanoma = tested on: SK-MEL-2 melanoma
HOP-18 NSCLC = tested on: HOP-18 NSCLC
NCI-H522 lung = tested on: NCI-H522 lung
IGROV1 ovarian = tested on: IGROV1 ovarian
HOP-62 NSCLC = tested on: HOP-62 NSCLC
HCT-116 colon = tested on: HCT-116 colon
SNB-19 CNS = tested on: SNB-19 CNS
HCT-15 colon = tested on: HCT-15 colon
RPMI-8226 leukemia = tested on: RPMI-8226 leukemia
SK-MEL-5 melanoma = tested on: SK-MEL-5 melanoma
M14 melanoma = tested on: M14 melanoma
A549 NSCLC = tested on: A549 NSCLC
SN12C renal = tested on: SN12C renal
KM12 colon = tested on: KM12 colon
TK-10 renal = tested on: TK-10 renal
SF-295 CNS = tested on: SF-295 CNS
ACHN renal = tested on: ACHN renal
NCI-H460 lung = tested on: NCI-H460 lung
CAKI-1 renal = tested on: CAKI-1 renal
HOP-92 NSCLC = tested on: HOP-92 NSCLC
SF-268 CNS = tested on: SF-268 CNS
SK-OV-3 ovarian = tested on: SK-OV-3 ovarian
786-0 renal = tested on: 786-0 renal
MALME-3M melanoma = tested on: MALME-3M melanoma
DMS 273 small cell lung = tested on: DMS 273 small cell lung
DLD-1 colon = tested on: DLD-1 colon
RXF 393 renal = tested on: RXF 393 renal
COLO 205 colon = tested on: COLO 205 colon
SNB-78 CNS = tested on: SNB-78 CNS
OVCAR-5 ovarian = tested on: OVCAR-5 ovarian
UO-31 renal = tested on: UO-31 renal
UACC-257 melanoma = tested on: UACC-257 melanoma
OVCAR-4 ovarian = tested on: OVCAR-4 ovarian
HL-60(TB) leukemia = tested on: HL-60(TB) leukemia
U251 CNS = tested on: U251 CNS
SF-539 CNS = tested on: SF-539 CNS
A498 renal = tested on: A498 renal
SNB-75 CNS = tested on: SNB-75 CNS
CCRF-CEM leukemia = tested on: CCRF-CEM leukemia
LOX IMVI melanoma = tested on: LOX IMVI melanoma
OVCAR-8 ovarian = tested on: OVCAR-8 ovarian
M19-MEL melanoma = tested on: M19-MEL melanoma
EKVX NSCLC = tested on: EKVX NSCLC
OVCAR-3 ovarian = tested on: OVCAR-3 ovarian
SR leukemia = tested on: SR leukemia
K-562 leukemia = tested on: K-562 leukemia
NCI-H226 lung = tested on: NCI-H226 lung
XF 498 CNS = tested on: XF 498 CNS
SW-620 colon = tested on: SW-620 colon

CCCCCCCOc1ccc(/C=C\c2cc[n+](CCCCCCCC[n+]3ccc(/C=C\c4ccc(OCCCCCCC)cc4)cc3)cc2)cc1
TGI (NCI-H23 lung): > 100 µM
TGI (LXFL 529 NSCLC): 34.8 µM
TGI (KM20L2 colon): 63.1 µM
TGI (HT29 colon): 28.7 µM
TGI (MOLT-4 leukemia): 62.2 µM
TGI (SK-MEL-28 melanoma): 32.2 µM
TGI (DMS 114 small cell lung): 36 µM
TGI (UACC-62 melanoma): > 100 µM
TGI (SK-MEL-2 melanoma): 74.3 µM
TGI (HOP-18 NSCLC): 28.4 µM
TGI (NCI-H522 lung): 10.7 µM
TGI (IGROV1 ovarian): 33.3 µM
TGI (HOP-62 NSCLC): > 100 µM
TGI (HCT-116 colon): 26.5 µM
TGI (SNB-19 CNS): > 100 µM
TGI (HCT-15 colon): 34.1 µM
TGI (RPMI-8226 leukemia): > 100 µM
TGI (SK-MEL-5 melanoma): 27.7 µM
TGI (M14 melanoma): 34.5 µM
TGI (A549 NSCLC): 41.5 µM
TGI (SN12C renal): 57 µM
TGI (KM12 colon): 28.2 µM
TGI (TK-10 renal): 43.7 µM
TGI (SF-295 CNS): > 100 µM
TGI (ACHN renal): > 100 µM
TGI (NCI-H460 lung): 17 µM
TGI (CAKI-1 renal): 63.7 µM
TGI (HOP-92 NSCLC): > 100 µM
TGI (SF-268 CNS): 44.6 µM
TGI (SK-OV-3 ovarian): 57.8 µM
TGI (786-0 renal): 32 µM
TGI (MALME-3M melanoma): 33.7 µM
TGI (DMS 273 small cell lung): 71.1 µM
TGI (DLD-1 colon): 67 µM
TGI (RXF 393 renal): > 100 µM
TGI (COLO 205 colon): 58.7 µM
TGI (SNB-78 CNS): > 100 µM
TGI (OVCAR-5 ovarian): 46.5 µM
TGI (UO-31 renal): 41.2 µM
TGI (UACC-257 melanoma): > 100 µM
TGI (OVCAR-4 ovarian): > 100 µM
TGI (HL-60(TB) leukemia): > 100 µM
TGI (U251 CNS): 24.6 µM
TGI (SF-539 CNS): > 100 µM
TGI (A498 renal): 80.8 µM
TGI (SNB-75 CNS): > 100 µM
TGI (CCRF-CEM leukemia): > 100 µM
TGI (LOX IMVI melanoma): > 100 µM
TGI (OVCAR-8 ovarian): 55.5 µM
TGI (M19-MEL melanoma): > 100 µM
TGI (EKVX NSCLC): > 100 µM
TGI (OVCAR-3 ovarian): 33.1 µM

COc1cccc(OC)c1C(=O)OCc1ccccc1
TGI (NCI-H23 lung): > 100 µM
TGI (LXFL 529 NSCLC): > 100 µM
TGI (KM20L2 colon): > 100 µM
TGI (HT29 colon): > 100 µM
TGI (MOLT-4 leukemia): > 100 µM
TGI (SK-MEL-28 melanoma): > 100 µM
TGI (DMS 114 small cell lung): > 100 µM
TGI (UACC-62 melanoma): > 100 µM
TGI (SK-MEL-2 melanoma): > 100 µM
TGI (SR leukemia): > 100 µM
TGI (NCI-H522 lung): > 100 µM
TGI (IGROV1 ovarian): > 100 µM
TGI (HOP-62 NSCLC): > 100 µM
TGI (HCT-116 colon): > 100 µM
TGI (HCT-15 colon): > 100 µM
TGI (RPMI-8226 leukemia): > 100 µM
TGI (SK-MEL-5 melanoma): > 100 µM
TGI (M14 melanoma): > 100 µM
TGI (A549 NSCLC): > 100 µM
TGI (SN12C renal): > 100 µM
TGI (KM12 colon): > 100 µM
TGI (TK-10 renal): > 100 µM
TGI (SF-295 CNS): > 100 µM
TGI (ACHN renal): > 100 µM
TGI (NCI-H460 lung): > 100 µM
TGI (CAKI-1 renal): > 100 µM
TGI (HOP-92 NSCLC): > 100 µM
TGI (K-562 leukemia): > 100 µM
TGI (SF-268 CNS): > 100 µM
TGI (SK-OV-3 ovarian): > 100 µM
TGI (786-0 renal): > 100 µM
TGI (DLD-1 colon): > 100 µM
TGI (RXF 393 renal): > 100 µM
TGI (COLO 205 colon): > 100 µM
TGI (UACC-257 melanoma): > 100 µM
TGI (OVCAR-4 ovarian): > 100 µM
TGI (HL-60(TB) leukemia): > 100 µM
TGI (NCI-H226 lung): > 100 µM
TGI (U251 CNS): > 100 µM
TGI (SF-539 CNS): > 100 µM
TGI (SNB-75 CNS): > 100 µM
TGI (CCRF-CEM leukemia): > 100 µM
TGI (OVCAR-8 ovarian): > 100 µM
TGI (M19-MEL melanoma): > 100 µM
TGI (XF 498 CNS): > 100 µM
TGI (EKVX NSCLC): > 100 µM
TGI (SW-620 colon): > 100 µM
TGI (OVCAR-3 ovarian): > 100 µM
